These results are taken from US20060046972A1, “Cytotoxic nucleoside analog compound 003 for treating cancer” (Parker Hughes Institute, priority 2004, published 2006).

For assay [1], the system named is centrosomes isolated from an EBV-transformed B-lymphoblastoid cell line. As to the kind of experiment: Centrosomal regrowth assay of aster formation from isolated centrosomes. The assay is classed as biochemical. Particulars: 100 μM. As to the method: Centrosome isolation from an EBV-transformed B-lymphoblastoid cell line was performed following a slight modification of a literature procedure (See, for example, Moudjou and Bomens, 1994, Cell Biology: A Laboratory Handbook, p. 595. Academic Press, Inc, New York; and Cell Biology: A Laboratory Handbook, 1994).
Briefly, cells were grown to a density of 1×10^6 per ml. A total of 1×10^9 cells were treated for 1 hour with […] and […]. All subsequent procedures were performed at 4° C. Firstly, cells were transferred into sterile conical 50 ml tubes and sedimented at 1,200×g for 5 minutes. Cells were then washed twice with 50 ml of filtered tris buffered saline (10 mM Tris-HCl, pH 7.4, 150 mM NaCl, TBS) by gentle resuspension with a pasteur pipette and sedimented at 1,200×g for 5 minutes. Cells were next washed with 8% sucrose in ten times diluted TBS and sedimented at 1,200×g for 5 minutes. Cells were lysed with 100 ml of 1 mM Hepes lysis buffer (0.5% Nonidet-P40), 0.5mM MgCl2, 0.1% β-Mercaptoethanol, 1 mM PMSF, 100 μg/ml aprotinin, 1 μg/ml leupeptin and 1 μg/ml pepstatin), pH 7.2. The swollen nuclei were sedimented at 1,200×g for 10 minutes and the supernatant was filtered through a 70 μm nylon cell strainer. After the addition of 1M Hepes (10 mM final) and 5 μl of 10 mg/ml DNase (1 μg/ml final), the lysate was incubated for 30 minutes at 4° C. […]

For the next assay, the system named is MOLT-3 T-lymphoma cells. Put plainly: Confocal laser scanning microscopy of mitotic spindle, MOLT-3. Format: cell-based, human. Particulars: 100 μM. As to the method: Immunofluorenscence was used to examine the spindle features of human cancer cell lines treated with Compound 003 or 0.5% DMSO. Initially, cells at log phase were seeded onto sterile 22 mm coverslips in six -well culture plates. 24 hours later, the cells were treated with compound 003 for 2 hours at 37° C., 5% C02, fixed in methanol (−20° C. 15 min) followed by a 15 minute incubation with PBS +0.1.% Tx-100. The coverslips were incubated with antibodies raised against α-tubulin, γ-tubulin (Sigma Chemical Co., St Louis, Mo.) (40 min 37° C.), washed in PBS-Tx-100, and incubated with an appropriate secondary antibody conjugated to FITC (Jackson ImmunoResearch, Westgrove, Pa.). Cellular DNA was labeled with 5 μM TOTO3 (Molecular Probes, Eugene, Oreg.) for 20 minutes. Coverslips were immediately inverted onto slides in Vectashield (Vector Labs, Burlingame, Calif.) to prevent photobleaching, sealed with nail varnish and stored at −20° C. The slides were examined using a Bio-Rad MRC-1024 Laser Scanning Confocal Microscope equipped with a Kr/Ar laser (BioRad, Hercules, Calif.) mounted on a Nikon Eclipse E800 upright microscope with high numerical aperture objectives (Nikon, Melville, N.Y.). Digital data were processed using Lasersharp (BioRad) and Adobe Photoshop software (Adobe Systems, Mountain View, Calif.). […]

As to `COC(=O)C(C)NP(=O)(OCC1OC(n2cc(C)c(=O)[nH]c2=O)CC1N=[N+]=[N-])Oc1ccc(OC)cc1` (centres unmarked) [Compound 003, 3′-azidothymidine 5′-[p-methoxyphenylmethoxyalaninyl phosphate]], the “nucleation of microtubules and aster growth from isolated centrosomes” value in assay [1] is “inhibited the ability of the centrosomes to nucleate and sufficiently grow microtubule asters”. For the same compound, the mitotic spindle formation entry with MOLT-3 T-lymphoma cells is recorded as “induced aberrant multipolar spindle formation”.
